{"source": "patent US20230132823A1", "about": "“BI-FUNCTIONAL COMPOUNDS AND METHODS FOR TARGETED UBIQUITINATION OF ANDROGEN RECEPTOR” (MONTELINO THERAPEUTICS, INC., priority 2020, published 2023)", "data": [{"system": "22Rv1", "experiment": "22Rv1 cell proliferation assay (Experimental Example 1, cell count)", "format": "cell-based", "details": "Homo sapiens, 22Rv1, read-out: 22Rv1 cell count decrease at 10 μM for 48 hours; 10 μM (method: four days); read-out: 22Rv1 cell count decrease at 10 μM", "method": "The human prostate cancer cell line, 22Rv1 has been reported to express a high level of AR-V7. […] Standard culture media was RPMI-1640 supplemented with 10% fetal bovine serum. The test compound initially was dissolved in DMSO at 50 mM. This stock solution was then diluted as needed for the indicated concentrations. […]\nIn the Table: (+)—the cell count decreased between 0 and 20%; (++)—the cell count decreased […]; (+++)—the cell count decreased by more than 50%.", "units": {"inhibition at 10 µM": "%"}, "values": [{"compound": "O=C(COc1c(-c2csc(N3CCOCC3)n2)ccc(F)c1F)NCCCCCCCCNc1cccc2c1C(=O)N(C1CCC(=O)NC1=O)C2=O", "note": "(stereo not shown) [Example 2, 2-(2,3-difluoro-6-(2-morpholinothiazol-4-yl)phenoxy)-N-(8-((2-(2,6-dioxopiperidin-3-yl)-1,3-dioxoisoindolin-4-yl)amino)octyl)acetamide]", "inhibition at 10 µM": "0 to 20"}, {"compound": "O=C(COc1c(-c2csc(N3CCOCC3)n2)ccc(F)c1F)NCCOCCOCCNc1cccc2c1C(=O)N(C1CCC(=O)NC1=O)C2=O", "note": "(stereo not shown) [Example 4, 2-(2,3-difluoro-6-(2-morpholinothiazol-4-yl)phenoxy)-N-(2-(2-(2-((2-(2,6-dioxopiperidin-3-yl)-1,3-dioxoisoindolin-4-yl)amino)ethoxy)ethoxy)ethyl)acetamide]", "inhibition at 10 µM": "0 to 20"}, {"compound": "O=C(COc1c(-c2csc(N3CCOCC3)n2)ccc(F)c1F)NCCOCCOCCOCCNc1cccc2c1C(=O)N(C1CCC(=O)NC1=O)C2=O", "note": "(stereo not shown) [Example 5, 2-(2,3-difluoro-6-(2-morpholinothiazol-4-yl)phenoxy)-N-(2-(2-(2-(2-((2-(2,6-dioxopiperidin-3-yl)-1,3-dioxoisoindolin-4-yl)amino)ethoxy)ethoxy)ethoxy)ethyl)acetamide]", "inhibition at 10 µM": "0 to 20"}, {"compound": "O=C(COc1c(-c2csc(N3CCOCC3)n2)ccc(F)c1F)NCCOCCOCCOCCOCCNc1cccc2c1C(=O)N(C1CCC(=O)NC1=O)C2=O", "note": "(stereo not shown) [Example 6, 2-(2,3-difluoro-6-(2-morpholinothiazol-4-yl)phenoxy)-N-(14-((2-(2,6-dioxopiperidin-3-yl)-1,3-dioxoisoindolin-4-yl)amino)-3,6,9,12-tetraoxatetradecyl)acetamide]", "inhibition at 10 µM": "0 to 20"}, {"compound": "O=C(COc1cccc2c1C(=O)N(C1CCC(=O)NC1=O)C2=O)NCCCCCCNC(=O)COc1c(-c2csc(N3CCOCC3)n2)ccc(F)c1F", "note": "(stereo not shown) [Example 7, 2-(2,3-difluoro-6-(2-morpholinothiazol-4-yl)phenoxy)-N-(6-(2-((2-(2,6-dioxopiperidin-3-yl)-1,3-dioxoisoindolin-4-yl)oxy)acetamido)hexyl)acetamide]", "inhibition at 10 µM": "0 to 20"}, {"compound": "O=C(COc1cccc2c1C(=O)N(C1CCC(=O)NC1=O)C2=O)NCCCCCCCCNC(=O)COc1c(-c2csc(N3CCOCC3)n2)ccc(F)c1F", "note": "(stereo not shown) [Example 8, 2-(2,3-difluoro-6-(2-morpholinothiazol-4-yl)phenoxy)-N-(8-(2-((2-(2,6-dioxopiperidin-3-yl)-1,3-dioxoisoindolin-4-yl)oxy)acetamido)octyl)acetamide]", "inhibition at 10 µM": "0 to 20"}, {"compound": "O=C(COc1cccc2c1C(=O)N(C1CCC(=O)NC1=O)C2=O)NCCCCCCCCCCNC(=O)COc1c(-c2csc(N3CCOCC3)n2)ccc(F)c1F", "note": "(stereo not shown) [Example 9, 2-(2,3-difluoro-6-(2-morpholinothiazol-4-yl)phenoxy)-N-(10-(2-((2-(2,6-dioxopiperidin-3-yl)-1,3-dioxoisoindolin-4-yl)oxy)acetamido)decyl)acetamide]", "inhibition at 10 µM": "0 to 20"}, {"compound": "O=C(COc1cccc2c1C(=O)N(C1CCC(=O)NC1=O)C2=O)NCCOCCOCCNC(=O)COc1c(-c2csc(N3CCOCC3)n2)ccc(F)c1F", "note": "(stereo not shown) [Example 10, 2-(2,3-difluoro-6-(2-morpholinothiazol-4-yl)phenoxy)-N-(2-(2-(2-(2-((2-(2,6-dioxopiperidin-3-yl)-1,3-dioxoisoindolin-4-yl)oxy)acetamido)ethoxy)ethoxy)ethyl)acetamide]", "inhibition at 10 µM": "0 to 20"}, {"compound": "O=C(COc1cccc2c1C(=O)N(C1CCC(=O)NC1=O)C2=O)NCCOCCOCCOCCNC(=O)COc1c(-c2csc(N3CCOCC3)n2)ccc(F)c1F", "note": "(stereo not shown) [Example 11, 2-(2,3-difluoro-6-(2-morpholinothiazol-4-yl)phenoxy)-N-(1-((2-(2,6-dioxopiperidin-3-yl)-1,3-dioxoisoindolin-4-yl)oxy)-2-oxo-6,9,12-trioxa-3-azatetradecan-14-yl)acetamide]", "inhibition at 10 µM": "0 to 20"}, {"compound": "O=C1CCC(N2C(=O)c3cccc(NCCOCCOCCOc4c(-c5csc(N6CCOCC6)n5)ccc(F)c4F)c3C2=O)C(=O)N1", "note": "(stereo not shown) [Example 12, 4-((2-(2-(2-(2,3-difluoro-6-(2-morpholinothiazol-4-yl)phenoxy)ethoxy)ethoxy)ethyl)amino)-2-(2,6-dioxopiperidin-3-yl)isoindoline-1,3-dione]", "inhibition at 10 µM": "0 to 20"}, {"compound": "O=C1CCC(N2C(=O)c3cccc(NCCOCCOCCOCCOc4c(-c5csc(N6CCOCC6)n5)ccc(F)c4F)c3C2=O)C(=O)N1", "note": "(stereo not shown) [Example 13, 4-((2-(2-(2-(2-(2,3-difluoro-6-(2-morpholinothiazol-4-yl)phenoxy)ethoxy)ethoxy)ethoxy)ethyl)amino)-2-(2,6-dioxopiperidin-3-yl)isoindoline-1,3-dione]", "inhibition at 10 µM": "0 to 20"}, {"compound": "O=C(COc1cccc2c1C(=O)N(C1CCC(=O)NC1=O)C2=O)NCCOCCOCCOCCOCCOc1c(-c2csc(N3CCOCC3)n2)ccc(F)c1F", "note": "(stereo not shown) [Example 14, N-(14-(2,3-difluoro-6-(2-morpholinothiazol-4-yl)phenoxy)-3,6,9,12-tetraoxatetradecyl)-2-((2-(2,6-dioxopiperidin-3-yl)-1,3-dioxoisoindolin-4-yl)oxy)acetamide]", "inhibition at 10 µM": "0 to 20"}, {"compound": "Cc1ncsc1-c1ccc([C@H](C)NC(=O)[C@@H]2C[C@@H](O)CN2C(=O)[C@@H](NC(=O)CCCNC(=O)COc2c(-c3csc(N4CCOCC4)n3)ccc(F)c2F)C(C)(C)C)cc1", "note": "[Example 15, (2S,4R)-1-((S)-2-(4-(2-(2,3-difluoro-6-(2-morpholinothiazol-4-yl)phenoxy)acetamido)butanamido)-3,3-dimethylbutanoyl)-4-hydroxy-N-((S)-1-(4-(4-methylthiazol-5-yl)phenyl)ethyl)pyrrolidine-2-carboxamide]", "inhibition at 10 µM": "< 50"}, {"compound": "Cc1ncsc1-c1ccc([C@H](C)NC(=O)[C@@H]2C[C@@H](O)CN2C(=O)[C@@H](NC(=O)CCCCCNC(=O)COc2c(-c3csc(N4CCOCC4)n3)ccc(F)c2F)C(C)(C)C)cc1", "note": "[Example 17, (2S,4R)-1-((S)-2-(6-(2-(2,3-difluoro-6-(2-morpholinothiazol-4-yl)phenoxy)acetamido)hexanamido)-3,3-dimethylbutanoyl)-4-hydroxy-N-((S)-1-(4-(4-methylthiazol-5-yl)phenyl)ethyl)pyrrolidine-2-carboxamide]", "inhibition at 10 µM": "< 50"}, {"compound": "Cc1ncsc1-c1ccc([C@H](C)NC(=O)[C@@H]2C[C@@H](O)CN2C(=O)[C@@H](NC(=O)CCCCCCNC(=O)COc2c(-c3csc(N4CCOCC4)n3)ccc(F)c2F)C(C)(C)C)cc1", "note": "[Example 18, (2S,4R)-1-((S)-2-(7-(2-(2,3-difluoro-6-(2-morpholinothiazol-4-yl)phenoxy)acetamido)heptanamido)-3,3-dimethylbutanoyl)-4-hydroxy-N-((S)-1-(4-(4-methylthiazol-5-yl)phenyl)ethyl)pyrrolidine-2-carboxamide]", "inhibition at 10 µM": "< 50"}, {"compound": "Cc1ncsc1-c1ccc([C@H](C)NC(=O)[C@@H]2C[C@@H](O)CN2C(=O)[C@@H](NC(=O)COCCCNC(=O)COc2c(-c3csc(N4CCOCC4)n3)ccc(F)c2F)C(C)(C)C)cc1", "note": "[Example 19, (2S,4R)-1-((S)-2-(2-(3-(2-(2,3-difluoro-6-(2-morpholinothiazol-4-yl)phenoxy)acetamido)propoxy)acetamido)-3,3-dimethylbutanoyl)-4-hydroxy-N-((S)-1-(4-(4-methylthiazol-5-yl)phenyl)ethyl)pyrrolidine-2-carboxamide]", "inhibition at 10 µM": "< 50"}]}]}
